Test results as given in patent EP0401517A1, “Substituted 2-alkynylphenols with anti-inflammatory action, a process for their preparation and pharmaceutical compositions thereof” (CAMILLO CORVI S.p.A., priority 1989, dated 1990).

Legend:
cyclo-oxygenase = assay: In vitro cyclo-oxygenase activity: malondialdehyde production in guinea pig lung homogenate incubated with arachidonic acid and cofactors; assay type: biochemical
Procedure: (§1) These new products are active in vitro as inhibitors of cyclo-oxygenase (malondialdehyde production test in guinea pig lung homogenates) and/or of the 5-lipo-oxygenase (A23187 stimulated rabbit leucocytes test).
The cyclooxygenase activity is determined according to the method of Luzzani et al. (Luzzani, F., et al. INT. J. TISS. REAC. X(2); 79-83, 1988), by monitoring the production of malondialdehyde in a guinea pig lung homogenate incubated in the presence of arachidonic acid and cofactors.
(§2) In Table I below the results of the comparisons of 8 inventive compounds with 3 prior art compounds are shown. In column "CO" the data concerning cyclo-oxygenase, and in column "5-LO" those concerning 5-lipo-oxygenase are shown.

5-lipo-oxygenase = biological target: T1, 5-lipo-oxygenase (Oryctolagus cuniculus, UniProt G1SNX0); assay: In vitro 5-lipo-oxygenase activity: formation of leukotriene B4 from [14C] arachidonic acid in calcium ionophore A23187 stimulated rabbit leukocytes (radiometric T.L.C. assay); assay type: cell-based; conditions: read-out: 5-LO (% of inhibition at 10 µM)
T1 construct: a preparation of calcium ionophore A23187 stimulated rabbit leukocites; endogenous in cells; host or cells: rabbit leukocytes
T1 sequence (G1SNX0 1-674): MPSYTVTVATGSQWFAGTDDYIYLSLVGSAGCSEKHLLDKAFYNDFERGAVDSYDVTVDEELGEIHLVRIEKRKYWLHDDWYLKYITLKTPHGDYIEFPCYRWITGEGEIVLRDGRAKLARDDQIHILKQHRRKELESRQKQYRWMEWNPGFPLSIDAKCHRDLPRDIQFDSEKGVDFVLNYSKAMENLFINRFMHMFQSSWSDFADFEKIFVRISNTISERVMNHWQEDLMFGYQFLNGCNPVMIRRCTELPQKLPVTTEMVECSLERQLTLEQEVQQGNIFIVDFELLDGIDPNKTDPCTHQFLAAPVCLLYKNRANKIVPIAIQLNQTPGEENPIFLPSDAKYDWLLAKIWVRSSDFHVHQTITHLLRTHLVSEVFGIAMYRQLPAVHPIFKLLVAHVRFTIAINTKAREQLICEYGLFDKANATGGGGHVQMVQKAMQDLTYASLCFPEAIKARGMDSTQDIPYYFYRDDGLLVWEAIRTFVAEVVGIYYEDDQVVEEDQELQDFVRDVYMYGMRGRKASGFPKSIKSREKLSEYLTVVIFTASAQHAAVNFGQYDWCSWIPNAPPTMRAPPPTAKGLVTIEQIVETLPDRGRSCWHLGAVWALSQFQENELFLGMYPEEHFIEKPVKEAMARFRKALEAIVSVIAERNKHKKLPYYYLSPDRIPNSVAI
Procedure: as §1
The formation of leukotriene B₄ from [¹⁴C] arachidonic acid in a preparation of calcium ionophore A23187 stimulated rabbit leukocites is measured by means of a slightly modified radiometric T.L.C.assay based on published procedures (Beetens, J.R. et al. BIOCHEM. PHARMACOL 35 (6); 883, 1986).
as §2

| Structure (SMILES) | CO (% of inhibition at 10 µM) (cyclo-oxygenase) [%] | inhibition at 10 µM (5-lipo-oxygenase) [%] |
| --- | --- | --- |
| NC1=NN(c2cccc(C(F)(F)F)c2)CC1 [BW 755 c, reference compound] | 30 | 25 |
| COc1cccc(CC#Cc2ccccc2)c1O [CO/1826, 2-(3-Phenyl-2-propynyl)-6-methoxyphenol] | 66 | 52 |
| COc1ccc(O)c(CC#Cc2ccccc2)c1 [CO/1828, 2-(3-Phenyl-2-propynyl)-4-metoxyphenol] | 50 | 57 |
| CCCCCCC#CCc1cc(OC)ccc1O [CO/1837, 4-Methoxy-2-(2-nonynyl)phenol] | 52 | 92 |

The remaining lines, values ahead:

| CO (% of inhibition at 10 µM) (cyclo-oxygenase) [%] | inhibition at 10 µM (5-lipo-oxygenase) [%] | Structure (SMILES) |
| --- | --- | --- |
| 23 | 46 | COc1ccc(O)c(C(C)C#Cc2ccccc2)c1 (stereo not drawn) [CO/1863, 2-(4-Phenyl-3-butyne-2-yl)-4-methoxyphenol] |
| 26 | 90 | Oc1cccc(CC#Cc2ccccc2)c1O [CO:1841, 3-(3-Phenyl-2-propynyl)pyrocatechol] |
| 0 | 68 | CC(C#Cc1ccccc1)c1cc(OCc2ccccc2)ccc1O (stereo not drawn) [CP/1864, 4-Benzyloxy-2-(4-phenyl-3-butyne-2-yl)phenol] |
| 98 | 0 | COc1ccc2c(c1)c(CC(=O)O)c(C)n2C(=O)c1ccc(Cl)cc1 [INDOMETHACIN, reference compound] |
| 5 | 92 | CC(Cc1ccc(O)c(O)c1)C(C)Cc1ccc(O)c(O)c1 (stereo not drawn) [NORDIHYDROGUAIARETIC ACID, reference compound] |
